Counter-ions that a name gives are not always drawn. Like-named read-outs stand apart in the source and are kept apart here.
How the values were obtained:
[1] = rat, in vivo
From the text: (§1) In the following sample acquisition, special care to ensure minimal oxidation of BH4 was taken throughout the following procedure. In brief, the abdomen was opened and cannulae were set in place for collecting bile and urine. The blood samples were drawn from the tail vein into a heparin-coated capillary containing a solution of 0.1 M ascorbic acid (less than 5% by volume), and they were then subjected to differential iodine oxidation for BP determination. The urine was collected at intervals from the bladder through an indwelling needle connected to an airtight syringe in which the dead space had been filled with saline containing 50 mM each of ascorbic acid and EDTA (pH 6.8). The urine was immediately mixed with 9 volumes of 10 mM HCl containing 5 mM antioxidant. The aliquots were then subjected to quantitation of BP and creatinine. BP excretion was expressed as BP/creatinine (μmol/mg creatinine) based on the BP concentration (nmol/mL) divided by the time-matched creatinine level (μg/mL). In calculating the cumulative total, the amounts of BP in each fraction were added. Calculations were based on the BP concentration (nmol/mL) multiplied by the respective urine volume (mL) produced between each sampling time point regardless of the creatinine concentration. The bile was also collected from individual rats through a cannula in the bile duct and was immediately subjected to BP determination. The cumulative BP amount was calculated by adding up all samples measured.
(§2) Biopterin was determined essentially according to Fukushima and Nixon and modified as described previously. Animal tissues contain at least 4 chemical species of the reduced biopterin family; BH4-4a-carbinolamine (or 4a-hydroxy-tetrahydrobiopterin), quinonoid dihydrobiopterin and 7,8-dihydrobiopterin as well as BH4. The Fukushima and Nixon method includes tissue homogenization and extraction of pterin compounds followed by measurement of amount of fully oxidized biopterin after differential iodine oxidation under acid and alkaline conditions. With their method, the biopterin quantity remaining after the acid-oxidation was taken as the total biopterin (BP = “BH4” + “BH2” + “oxidized biopterin”) and that which remained after the alkaline-oxidation, as 7,8-dihydrobiopterin (BH2) plus oxidized biopterin. […] Accordingly, in this study, the biopterin amount measured after the acid iodine oxidation was taken as the sum of “BH4” and “BH2” (“BP” = “BH2” + “BH4”), and that after the alkaline oxidation, as the amount of “BH2”. The difference was therefore taken as the “BH4” amount. The BH4 fraction (BH4%; the percentage of BH4 in BP) was calculated for each individual sample. The amounts of BH4 and BH2 were calculated based on molecular weights of 241 g/mol and 239 g/mol, respectively.
The urinary creatinine concentration was measured using a creatininase-HMMPS method according to the manufacturer’s instructions (L-type Creatinine M; Wako Pure Chemical Industries, Osaka, Japan).
Data were expressed as means ±S.E. The statistical significance of two groups with non-repeated determination was analyzed by Student’s t-test. The significance of difference between determinations at different times with individual animal groups was analyzed by the Paired t-test. Significance of difference between three groups was analyzed by Tukey’s test. All the statistical analyses were performed with Pharmaco Basic Ver.15.0.1 (Scientist Co. Ltd., Tokyo). Using results of pterin kinetics, exponential least square approximation was performed with Excel software using Microsoft Office for Mac.

[2] = both, Sprague-Dawley, rat, in vivo
From the text: as §1
Biopterin was determined essentially according to Fukushima and Nixon and modified as described previously. […] With their method, the biopterin quantity remaining after the acid-oxidation was taken as the total biopterin (BP = “BH4” + “BH2” + “oxidized biopterin”) and that which remained after the alkaline-oxidation, as 7,8-dihydrobiopterin (BH2) plus oxidized biopterin. […] Accordingly, in this study, the biopterin amount measured after the acid iodine oxidation was taken as the sum of “BH4” and “BH2” (“BP” = “BH2” + “BH4”), and that after the alkaline oxidation, as the amount of “BH2”. […] The BH4 fraction (BH4%; the percentage of BH4 in BP) was calculated for each individual sample. The amounts of BH4 and BH2 were calculated based on molecular weights of 241 g/mol and 239 g/mol, respectively.
Data were expressed as means ±S.E. The statistical significance of two groups with non-repeated determination was analyzed by Student’s t-test. The significance of difference between determinations at different times with individual animal groups was analyzed by the Paired t-test. Significance of difference between three groups was analyzed by Tukey’s test. […]

[3] = both, Sprague-Dawley, rat, in vivo; remark: listed apart in the source
Method: Each blood sample was divided into three portions; one served as a “whole blood” specimen, the second was for the hematocrit determination, and the third was centrifuged (10,000 rpm, 4°C, 5 min) to separate red blood cells (RBCs) from the plasma. The whole blood, plasma, and RBCs were separately subjected to differential iodine oxidation for the BP determination described below. The results were expressed as the amount of BP per unit volume of the original blood sample (plasma + RBC, mL) based on the hematocrit value. The kidneys, liver, and whole brain were removed without prior perfusion, rinsed with saline, blotted, weighed, frozen in liquid nitrogen, and then stored at -80°C until BP determination. BP carryover with the blood was ignored in the liver and kidney. However, for the brain, the BP carryover was estimated using an average blood inclusion of 1.2% (v/w), which was determined by a comparison of the heme content of the blood and brain homogenates based on light absorbance at 415 nm.
as §2

[4] = parameters: method as in PMID 22318121, PMID 22318121; conditions: cited from earlier work

## C[C@H](O)[C@H](O)[C@H]1CNc2nc(N)[nH]c(=O)c2N1 [6RBH4, (6R)-L-erythro-5,6,7,8-tetrahydrobiopterin dihydrochloride]
[1]; both, Sprague-Dawley
  Urinary BP outflow: 1840 ± 250 nmol
  Urinary BP outflow as % of gross outflow obtained by 270 min: about 58%
[1]; both, Sprague-Dawley, 30 min
  Urinary BH4%: 95 ± 1%
[1]; both, Sprague-Dawley, 90 min
  Urinary BH4%: 87 ± 2%
[1]; both, Sprague-Dawley, 240 min
  Urinary BH4%: ca. 94%
[1]; iv, 5 mg/kg
  Creatinine-based urinary BP AUC0–270: 731 (μmol/mg Cr)•min
[2]
  Biliary BH4%: ~95%
  Biliary BP outflow fit, rate constant k: 0.007 min⁻¹
  C0: 47.2 µM
  Cumulative excretion of BP in the bile as % of that in the urine: about 3%
[3]; 30 min
  BH4% in blood: 93.9 ±0.6%
  BH4% in kidney: 98.0 ±0.2%
  BP (nmol) per organ: 76.8 nmol
  BP (nmol), sub-total of liver, blood, kidneys, brain: 515 nmol
  Brain BP increase over untreated rats: about 43%
  Kidney BP over the initial value: 58 fold
  Liver BP content: 53.3 nmol/g
  Liver BP over the initial value: 9.1 fold
[3]; 120 min
  BH4% in blood: 96.2 ±0.1%
  BH4% in liver: 98.8 ±0.1%
  BP (nmol) per organ: 39.5 nmol
  BP (nmol), sub-total of liver, blood, kidneys, brain: 325 nmol
[4]
  Urinary BP flow, glomerular filtration rate constant k: 0.013 min⁻¹
  Urinary BP flow, observed gross rate constant k: 0.043 min⁻¹
[4]; gross minus glomerular rate constant
  Urinary BP flow, tubular secretion rate constant k: 0.030 min⁻¹
